Tests used:
[1] = target: T1, acetylcholinesterase (Homo sapiens, UniProt P22303); assay: Inhibition of acetylcholinesterase (AChE) activity of lysed human red blood cells (Test Method 1); format: biochemical; settings: 60 min preincubation
T1 construct: The supernatant (lysed RBC's) was stored frozen; from tissue; host or cells: lysed human red blood cells (supernatant of hypotonic lysis)
Experimental: (§1) The following method was used to determine the relative inhibition of pseudocholinesterase and acetylcholinesterase by compounds of the present invention.
Lysed Red Blood Cells (RBC's) (Source of Acetylcholinesterase Enzyme)
Human blood which was collected in EDTA treated tubes was centrifuged at 1500×g for 10 min. at 4° C. One volume of chilled 0.9% saline solution was gently mixed with one volume of packed RBC's. One volume of this suspension was then washed three times with ten volumes of chilled 0.9% saline solution (4° C.). Each wash was centrifuged at 1500×g for 10 min. at 4° C. and supernatant was discarded. After the last wash the supernatant was replaced with deionized, distilled water (treated by Milli-Q apparatus, Millipore Corp., Bedford, MA) (4° C.). After 15 min. at 4° C. the suspension was centrifuged at 1500×g for 10 min. at 4° C. The supernatant (lysed RBC's) was stored frozen at -20° C. until use.
(§2) The buffer/chromogen solution was 0.25 mM 5,5'-dithiobis-[2-nitrobenzoic acid] (chromogen), 50 mM phosphate buffer, pH 7.2. In making up the buffer/chromogen solution and to keep it as colorless as possible, the phosphate buffer was first adjusted to pH 7.1 with NaOH; the chromogen was then added and dissolved; the pH was adjusted to 7.2; and the final volume was adjusted with addition of Milli-Q water. 5,5'-dithiobis-(2-nitrobenzoic acid) was obtained from Sigma Chemicals, St. Louis, MO.
(§3) The substrate solution for the pseudocholinesterase assay was 156 mM S-butyrylthiocholine iodide, and the substrate solution for the acetylcholinesterase assay was 156 mM S-acetylthiocholine iodide. Both substrate compounds were obtained from Sigma Chemicals.
(§4) Test Compound Stock Solutions
(§5) Solutions of all test compounds were made up at 2 μM, 20 μM, and 200 μM concentrations (in 0.9% saline solution) except as noted where lower concentrations were necessary because of decreased solubility of the compound in saline solution.
Acetylcholinesterase (AChE) Assay
The acetylcholinesterase assay was performed identically to the pseudocholinesterase assay with the following exceptions. The concentrations of the stock solutions of test compounds were 20 μM and 200 μM, instead of 2 μM and 20 μM, and the substrate solution was 156 mM S-acetylthiocholine iodide instead of S-butyrylthiocholine iodide. The lysed RBC's/test compound solution was incubated for 0 and 60 minutes instead of 0 and 30 minutes before being added to the cuvette containing the buffer/chromogen/substrate solution. From a plot of net absorbance versus time there was an initial period before the curve reached a steady linear rate. From this linear portion of the curve a rate of absorbance change per minute was calculated.
(§6) Each compound was tested for its ability to inhibit plasma pseudocholinesterase activity and acetylcholinesterase activity. Because of variation in the time points in the linear portion of the curve, inhibition values below 10-15% and higher than 85-90% are nearly indistinguishable from 0% and 100%, respectively.

[2] = target: T2, pseudocholinesterase (Homo sapiens, UniProt P06276); assay: Inhibition of human plasma pseudocholinesterase (PChE) activity (Test Method 1); format: biochemical; settings: 30 min preincubation
T2 construct: a 100 μl aliquot of human plasma; from tissue; host or cells: human plasma (EDTA blood, stored frozen)
T2 sequence (P06276 29-602): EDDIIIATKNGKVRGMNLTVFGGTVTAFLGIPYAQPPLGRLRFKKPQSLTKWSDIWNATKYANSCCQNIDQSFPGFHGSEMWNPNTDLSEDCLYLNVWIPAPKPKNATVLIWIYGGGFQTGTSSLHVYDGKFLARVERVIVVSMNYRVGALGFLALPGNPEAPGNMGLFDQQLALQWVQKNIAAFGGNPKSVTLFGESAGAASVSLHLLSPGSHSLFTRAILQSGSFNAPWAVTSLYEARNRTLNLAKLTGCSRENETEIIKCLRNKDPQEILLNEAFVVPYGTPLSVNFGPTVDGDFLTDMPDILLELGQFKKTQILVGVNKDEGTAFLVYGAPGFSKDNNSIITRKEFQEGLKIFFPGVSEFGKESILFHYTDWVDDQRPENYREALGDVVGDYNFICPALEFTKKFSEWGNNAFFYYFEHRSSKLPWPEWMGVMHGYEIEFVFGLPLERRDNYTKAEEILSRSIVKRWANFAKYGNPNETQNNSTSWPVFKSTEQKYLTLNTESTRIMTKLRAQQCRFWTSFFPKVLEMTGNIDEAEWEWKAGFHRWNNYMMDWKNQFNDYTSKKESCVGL
Experimental: as §1
Plasma (Source of Pseudocholinesterase Enzyme)
Human Plasma was obtained from blood which was collected in ethylenediaminetetraacetic acid (EDTA) treated tubes. Collected plasma was stored frozen at -20° C. until use.
as §2, §3, §4, §5
Pseudocholinesterase (PChE) Assay
In three separate tubes, a 100 μl aliquot of either 0.9% saline solution, 2 μM test compound solution, or 20 μM test compound solution was mixed with a 100 μl aliquot of human plasma, and the tubes were placed in a 35° C. water bath. Four cuvettes, each containing 3 ml buffer/chromogen solution mixed with 100 μl substrate solution (156 mM S-butyrylthiocholine iodide), had been placed in a heated cuvette holder (35° C.) in a Beckman DU-8B Spectrophotometer (Beckman Instruments). After the temperature of the buffer/chromogen/substrate solution in the cuvette had equilibrated for about 10 minutes, and after 0 or 30 minutes incubation of the plasma/test compound solution, a 25 μl aliquot of the plasma/test compound solutions was added to the corresponding cuvettes numbered 2-4. Cuvette #1 remained a blank. After mixing, the net absorbance of each cuvette was determined at 405 nm every 35 seconds for ten readings. From a plot of net absorbance versus time, the initial linear portion of the curve was determined, and a rate of absorbance change per minute was calculated. The positive control (100% PChE activity) was the plasma/saline solution.
as §6

[3] = system: pseudocholinesterase; settings: accidental poisoning; cited from earlier work
[4] = accidental poisoning; cited from earlier work

T1 sequence (P22303 other isoform, or with tags, fused parts or gaps): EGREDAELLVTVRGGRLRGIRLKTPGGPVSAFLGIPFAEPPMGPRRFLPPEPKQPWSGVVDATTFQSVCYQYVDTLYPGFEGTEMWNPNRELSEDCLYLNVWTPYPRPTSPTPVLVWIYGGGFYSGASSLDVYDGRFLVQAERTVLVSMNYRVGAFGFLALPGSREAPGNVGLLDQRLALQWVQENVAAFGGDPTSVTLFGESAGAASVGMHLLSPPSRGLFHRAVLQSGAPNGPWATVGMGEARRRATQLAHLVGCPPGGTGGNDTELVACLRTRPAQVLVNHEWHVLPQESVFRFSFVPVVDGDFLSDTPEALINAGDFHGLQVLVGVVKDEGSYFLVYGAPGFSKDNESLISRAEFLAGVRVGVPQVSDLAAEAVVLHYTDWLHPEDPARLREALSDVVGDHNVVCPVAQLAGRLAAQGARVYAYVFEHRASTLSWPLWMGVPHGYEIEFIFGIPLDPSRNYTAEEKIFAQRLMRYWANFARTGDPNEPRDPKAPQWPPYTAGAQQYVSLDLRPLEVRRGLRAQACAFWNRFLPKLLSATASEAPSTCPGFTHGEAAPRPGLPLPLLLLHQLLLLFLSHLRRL

Row | SMILES | inhibition at 10 µM [1] [%] | inhibition at 100 µM [1] [%] | inhibition at 1 µM [2] [%] | inhibition at 10 µM ([2]; 10 μM) [%] | further results
1 | NP(N)(=O)NC(=O)c1ccccc1 [Test Compound 1] | 4.1 | 37.3 | 92.7 | 99.1 | 
2 | NP(N)(=O)NC(=O)c1cccnc1 [Test Compound 2] | -1.9 | 70.7 | 84.1 | 97.6 | 
3 | NP(N)(=O)NC(=O)c1ccc([N+](=O)[O-])cc1 [Test Compound 3] | 64.3 | 86.9 | 90.4 | 99 | 
4 | Nc1ccc(C(=O)NP(N)(N)=O)cc1 [Test Compound 5] | 1.8 | 32.1 | 57.7 | 98.2 | 
5 | NP(N)(=O)NC(=O)c1ccc(Cl)cc1 [Test Compound 6] | 5.4 | 86.5 | 87.7 | 98.7 | 
6 | NP(N)(=O)NC(=O)c1cccc([N+](=O)[O-])c1 [Test Compound 7] | 23.9 | 86.6 | 65.6 | 98.9 | 
7 | COc1ccc(C(=O)NP(N)(N)=O)cc1 [Test Compound 8] | 3 | 34.2 | 83.4 | 96.3 | 
8 | Cc1ccc(C(=O)NP(N)(N)=O)cc1 [Test Compound 9] | 9.6 | 46 | 73.7 | 98.1 | 
9 | Cc1ccccc1C(=O)NP(N)(N)=O [Test Compound 10] | 8.6 | 44.5 | 21.4 | 89.2 | 
10 | NP(N)(=O)NC(=O)c1ccccc1Cl [Test Compound 11] | 32.1 | 87.3 | 49.5 | 98.5 | 
11 | N#Cc1ccc(C(=O)NP(N)(N)=O)cc1 [Test Compound 12] | 34.4 | 85.5 | 97.4 | 98.8 | 
12 | NP(N)(=O)NC(=O)c1cccc(F)c1 [Test Compound 13] | -4 | 41.3 | 80.2 | 98.8 | 
13 | NP(N)(=O)NC(=O)c1cccc(C(F)(F)F)c1 [Test Compound 14] | 25.7 | 85.9 | 25 | 94.1 | 
14 | NP(N)(=O)NC(=O)c1ccccc1F [Test Compound 15] | 14.7 | 82.1 | 97.4 | 99.3 | 
15 | CC(C)(C)c1ccc(C(=O)NP(N)(N)=O)cc1 [Test Compound 16] | 3.1 | 38.7 | 46.3 | 97.9 | 
16 | NP(N)(=O)NC(=O)c1ccc2ccccc2c1 [Test Compound 17] |  |  |  |  | inhibition at 5 µM ([1]; 5 μM (footnote a)): 16%; inhibition at 50 µM ([1]; 50 μM (footnote a)): 87.2%; inhibition at 0.5 µM ([2]; 0.5 μM (footnote a)): 27.4%; inhibition at 5 µM ([2]; 5.0 μM (footnote a)): 95.1%
17 | NP(N)(=O)NC(=O)Cc1ccccc1 [Test Compound 18] | 17.1 | 85.2 | 10.7 | 61.3 | 
18 | NP(N)(=O)NC(=O)c1cccc(Oc2ccccc2)c1 [Test Compound 19] | 15.8 | 64.2 | 63.7 | 98.3 | 
19 | CS(=O)(=O)c1ccc(C(=O)NP(N)(N)=O)cc1 [Test Compound 20, N-(diaminophosphinyl)-4-(methylsulfonyl)benzamide] | 20.5 | 86.4 | 92.9 | 98.5 | 
20 | NP(N)(=O)NC(=O)c1c(F)cccc1F [Test Compound 21] | 51.1 | 93.7 | 74.4 | 98.7 | 
21 | CCCCOc1ccc(C(=O)NP(N)(N)=O)cc1 [Test Compound 22] | 12.6 | 57.4 | 28.8 | 94.9 | 
22 | NP(N)(=O)NC(=O)C=Cc1ccccc1 [Test Compound 23] | 6.6 | 54.8 | 11.5 | 73.2 | 
23 | NP(N)(=O)NC(=O)c1ccc(-c2ccccc2)cc1 [Test Compound 24] |  |  |  |  | inhibition at 2.5 µM ([1]; 2.5 μM (footnote b)): -3.7%; inhibition at 25 µM ([1]; 25 μM (footnote b)): 34.8%; inhibition at 0.25 µM ([2]; 0.25 μM (footnote b)): 5.3%; inhibition at 2.5 µM ([2]; 2.5 μM (footnote b)): 66.6%
24 | Nc1ccc(S(=O)(=O)Nc2cccc(C(=O)NP(N)(N)=O)c2)cc1 [Test Compound 25] | 62.2 | 88.5 | 97.2 | 99 | 
25 | NP(N)(=O)NC(=O)c1ccco1 [Test Compound 26] | 7.7 | 73 | 91 | 98.7 | 
26 | CC(C)NP(N)(=O)NC(=O)c1ccc(F)cc1 (stereo not drawn) [Test Compound 27, N-[amino-(1-methylethylamino)phosphinyl]-4-fluorobenzamide] |  |  |  |  | inhibition at 50 µM ([1]; 50 μM (footnote c)): 5.8%; inhibition at 500 µM ([1]; 500 μM (footnote c)): 32.2%; inhibition at 10 µM ([2]; 10 μM (footnote c)): 8.7%; inhibition at 100 µM ([2]; 100 μM (footnote c)): 43.3%
27 | NP(N)(=O)NC(=O)c1ccc([N+](=O)[O-])o1 [Test Compound 28] | 46.9 | 93.1 | 21 | 90.8 | 
28 | CCOP(=S)(OCC)Oc1ccc([N+](=O)[O-])cc1 [parathione] |  |  |  |  | blood plasma level of pseudocholinesterase [3]: markedly decreased; HDL [4]: increased; blood plasma level of LDL [4]: markedly decreased

Source: patent publication US4800194A, “Acylphosphorotriamides useful as lipid-altering agents” (priority 1986, dated 1989)
